In ChEMBL document CHEMBL1201862, “PubChem BioAssay data set” (2004):
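How tested: cells in 96-well plates exposed to compound for 48 hours at five concentrations. GI50 is the concentration that inhibits growth by half.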 Calls of active or inactive are those of the source. Cut-off read from the data, not from the text of the source: active = GI50 up to about 1.1 µM and inactive = higher.

Columns and labels:
Test in all cases: NCI tumour cell line growth inhibition, 48 h
A549 = system: A549
CCRF-CEM = system: CCRF-CEM
COLO 205 = system: COLO 205
HCT-116 = system: HCT-116
M14 = system: M14
MCF7 = system: MCF7
MDA-MB-231 = system: MDA-MB-231
NCI-H226 = system: NCI-H226
NCI-H23 = system: NCI-H23
NCI-H460 = system: NCI-H460
NCI-H522 = system: NCI-H522
OVCAR-4 = system: OVCAR-4
OVCAR-8 = system: OVCAR-8
RXF 393 = system: RXF 393
SF-268 = system: SF-268
SK-MEL-28 = system: SK-MEL-28
SR = system: SR
UACC-257 = system: UACC-257
UACC-62 = system: UACC-62
UO-31 = system: UO-31

SMILES | GI50 (A549) | GI50 (CCRF-CEM) | GI50 (COLO 205) | GI50 (HCT-116) | GI50 (M14) | GI50 (MCF7) | GI50 (MDA-MB-231) | GI50 (NCI-H226) | GI50 (NCI-H23) | GI50 (NCI-H460) | GI50 (NCI-H522) | GI50 (OVCAR-4) | GI50 (OVCAR-8) | GI50 (RXF 393) | GI50 (SF-268) | GI50 (SK-MEL-28) | GI50 (SR) | GI50 (UACC-257) | GI50 (UACC-62) | GI50 (UO-31)
N/C(=N\c1ccccc1Cl)c1ccccc1N | > 100 µM (inactive) | > 100 µM (inactive) | > 100 µM (inactive) | > 100 µM (inactive) | > 100 µM (inactive) | > 100 µM (inactive) | > 100 µM (inactive) | > 100 µM (inactive) | > 100 µM (inactive) | > 100 µM (inactive) | > 100 µM (inactive) | > 100 µM (inactive) | > 100 µM (inactive) | > 100 µM (inactive) | > 100 µM (inactive) | > 100 µM (inactive) | > 100 µM (inactive) | > 100 µM (inactive) | > 100 µM (inactive) | > 100 µM (inactive)
C=C(CCOC)CCC1CCCCC/C1=N\N(C)C (configuration not stated) | > 100 µM (inactive) | > 100 µM (inactive) | > 100 µM (inactive) | > 100 µM (inactive) | > 100 µM (inactive) | > 100 µM (inactive) | > 100 µM (inactive) | > 100 µM (inactive) | > 100 µM (inactive) | > 100 µM (inactive) | > 100 µM (inactive) | > 100 µM (inactive) | > 100 µM (inactive) | > 100 µM (inactive) | > 100 µM (inactive) | > 100 µM (inactive) | > 100 µM (inactive) | – | > 100 µM (inactive) | > 100 µM (inactive)
COc1cc(CNc2ccc3nc4n(c(=O)c3c2)CCCCC4)cc(OC)c1OC | 51.1 µM (inactive) | 13.6 µM (inactive) | 35.9 µM (inactive) | 57.5 µM (inactive) | 94.4 µM (inactive) | 32.2 µM (inactive) | 27.3 µM (inactive) | 78.9 µM (inactive) | 37.2 µM (inactive) | 39.9 µM (inactive) | 39.9 µM (inactive) | 22.7 µM (inactive) | > 100 µM (inactive) | 58.6 µM (inactive) | 86.7 µM (inactive) | 43.4 µM (inactive) | > 100 µM (inactive) | 24.3 µM (inactive) | 43.6 µM (inactive) | 35.4 µM (inactive)
CCOC(=O)c1sc2c(c1O)c(=O)n(-c1ccccc1)c(=S)n2-c1ccccc1 | 55.3 µM (inactive) | 32.7 µM (inactive) | > 100 µM (inactive) | – | > 100 µM (inactive) | 67.6 µM (inactive) | > 100 µM (inactive) | > 100 µM (inactive) | 91.4 µM (inactive) | > 100 µM (inactive) | 46.6 µM (inactive) | > 100 µM (inactive) | 54.7 µM (inactive) | > 100 µM (inactive) | > 100 µM (inactive) | > 100 µM (inactive) | 10.8 µM (inactive) | > 100 µM (inactive) | 84.3 µM (inactive) | 87.3 µM (inactive)
N#CCCN(CCCCN(CCC#N)C(=O)Nc1ccccc1)C(=O)Nc1ccccc1 | > 100 µM (inactive) | – | > 100 µM (inactive) | > 100 µM (inactive) | > 100 µM (inactive) | > 100 µM (inactive) | > 100 µM (inactive) | > 100 µM (inactive) | > 100 µM (inactive) | > 100 µM (inactive) | > 100 µM (inactive) | > 100 µM (inactive) | > 100 µM (inactive) | 24.4 µM (inactive) | > 100 µM (inactive) | > 100 µM (inactive) | > 100 µM (inactive) | – | > 100 µM (inactive) | > 100 µM (inactive)
Cc1ccc2ccc(=O)oc2c1 | > 100 µM (inactive) | > 100 µM (inactive) | > 100 µM (inactive) | > 100 µM (inactive) | > 100 µM (inactive) | > 100 µM (inactive) | > 100 µM (inactive) | > 100 µM (inactive) | > 100 µM (inactive) | > 100 µM (inactive) | > 100 µM (inactive) | > 100 µM (inactive) | > 100 µM (inactive) | > 100 µM (inactive) | > 100 µM (inactive) | > 100 µM (inactive) | > 100 µM (inactive) | > 100 µM (inactive) | 74.5 µM (inactive) | > 100 µM (inactive)
CC(C)(C)OC(=O)N1CCC2(CC1)C(=O)NCN2c1ccccc1 | > 100 µM (inactive) | > 100 µM (inactive) | > 100 µM (inactive) | > 100 µM (inactive) | > 100 µM (inactive) | > 100 µM (inactive) | > 100 µM (inactive) | > 100 µM (inactive) | > 100 µM (inactive) | > 100 µM (inactive) | > 100 µM (inactive) | > 100 µM (inactive) | > 100 µM (inactive) | > 100 µM (inactive) | > 100 µM (inactive) | > 100 µM (inactive) | > 100 µM (inactive) | > 100 µM (inactive) | > 100 µM (inactive) | > 100 µM (inactive)
O=C1C(Br)=C(Br)C(=O)c2ccc(=O)ccc21 | 70.6 µM (inactive) | 2.88 µM (inactive) | 13.3 µM (inactive) | 20 µM (inactive) | 17.9 µM (inactive) | 18.6 µM (inactive) | 19.9 µM (inactive) | > 53 µM (inactive) | 21.2 µM (inactive) | 38.8 µM (inactive) | 2.67 µM (inactive) | 17.5 µM (inactive) | 22.3 µM (inactive) | 19.2 µM (inactive) | 30.3 µM (inactive) | 27 µM (inactive) | 26.1 µM (inactive) | 24.7 µM (inactive) | 19.5 µM (inactive) | 17.6 µM (inactive)
CN1CCN(C(=O)CCC(=O)Nc2cc3c(c4ccccc24)-c2ccc4ccccc4c2C3)CC1 | 1.96 µM (inactive) | 2.08 µM (inactive) | 1.6 µM (inactive) | 1.55 µM (inactive) | 1.45 µM (inactive) | 1.51 µM (inactive) | 1.26 µM (inactive) | 1.76 µM (inactive) | 1.97 µM (inactive) | 1.82 µM (inactive) | 1.63 µM (inactive) | 1.5 µM (inactive) | 2.18 µM (inactive) | 1.73 µM (inactive) | 1.8 µM (inactive) | 1.79 µM (inactive) | 1.79 µM (inactive) | 1.74 µM (inactive) | 1.7 µM (inactive) | 1.65 µM (inactive)
O=C1c2ccccc2C(=O)c2c(NC3CCCCC3)ccc(Nc3ccc(S(=O)(=O)O)cc3)c21 | 33.9 µM (inactive) | 26.3 µM (inactive) | 20.1 µM (inactive) | 29.7 µM (inactive) | 35.1 µM (inactive) | 21.3 µM (inactive) | 22.5 µM (inactive) | > 100 µM (inactive) | 77.1 µM (inactive) | 62.5 µM (inactive) | 20.6 µM (inactive) | 33.9 µM (inactive) | 35.3 µM (inactive) | 83.6 µM (inactive) | 34.8 µM (inactive) | > 100 µM (inactive) | 36.1 µM (inactive) | 23.9 µM (inactive) | > 100 µM (inactive) | 59 µM (inactive)
Cc1ccc(OCC2OC(n3cnc4c(Br)nc(Br)nc43)CC2Oc2ccc(C)cc2)cc1 (configuration not stated) | 12.6 µM (inactive) | 2.7 µM (inactive) | 4.06 µM (inactive) | 1.89 µM (inactive) | 2.59 µM (inactive) | 4.32 µM (inactive) | 2.12 µM (inactive) | 14.6 µM (inactive) | 4.55 µM (inactive) | – | 1.86 µM (inactive) | 3.12 µM (inactive) | 3.69 µM (inactive) | 4.94 µM (inactive) | 12.9 µM (inactive) | 4.51 µM (inactive) | 1.96 µM (inactive) | 7.06 µM (inactive) | 7.35 µM (inactive) | 14.3 µM (inactive)
Oc1cc(O)c2c(c1)O[C@H](c1cc(O)c(O)c(O)c1)[C@H](O)C2 [EPIGALLOCATECHIN] | 27.5 µM (inactive) | 17.9 µM (inactive) | 18.2 µM (inactive) | 19.2 µM (inactive) | 23.6 µM (inactive) | 20.8 µM (inactive) | 18.7 µM (inactive) | 26.4 µM (inactive) | 23.1 µM (inactive) | 18.3 µM (inactive) | 17.7 µM (inactive) | 14.7 µM (inactive) | 16.1 µM (inactive) | 15.2 µM (inactive) | 25.4 µM (inactive) | 36.6 µM (inactive) | 14.4 µM (inactive) | > 100 µM (inactive) | – | 18.5 µM (inactive)
Fc1ccccc1CN1COc2c(cc(Cl)c3cccnc23)C1 | 2.16 µM (inactive) | – | 14.2 µM (inactive) | 1.26 µM (inactive) | 2.05 µM (inactive) | 3.33 µM (inactive) | 0.422 µM (active) | 0.624 µM (active) | 1.6 µM (inactive) | 0.533 µM (active) | 2.68 µM (inactive) | 0.596 µM (active) | 1.53 µM (inactive) | 13.9 µM (inactive) | 2.62 µM (inactive) | 4.25 µM (inactive) | 0.389 µM (active) | 2.51 µM (inactive) | 0.427 µM (active) | 0.653 µM (active)
CC/C=C/C[C@H](O)[C@H]1C[C@H]2O[C@H](CC(=O)OC)C[C@H]2O1 | > 100 µM (inactive) | > 100 µM (inactive) | > 100 µM (inactive) | > 100 µM (inactive) | > 100 µM (inactive) | > 100 µM (inactive) | > 100 µM (inactive) | > 100 µM (inactive) | > 100 µM (inactive) | > 100 µM (inactive) | > 100 µM (inactive) | > 100 µM (inactive) | > 100 µM (inactive) | > 100 µM (inactive) | > 100 µM (inactive) | > 100 µM (inactive) | > 100 µM (inactive) | – | > 100 µM (inactive) | > 100 µM (inactive)
